Measured values taken from patent US7229986B2, “Melanin-concentrating hormone antagonist” (Takeda Pharmaceutical Company Ltd., priority 2000, dated 2007).
Counter-ions that a name gives are not always drawn.

Target: SLC-1 (UniProt Q99705)
Assay: Determination of antagonist activity using GTPγS binding assay
Type: biochemical, human, rat
Conditions: inhibition of MCH-stimulated [35S]-GTPγS binding, SLC-1 expressing CHO cell membrane fractions, 25° C., 1 hour
Description: Membrane fraction was prepared by the following method, using the human SLC-1 expressing CHO cell clone 57 obtained in Reference Example 1-10, and the rat SLC-1 expressing CHO cell clone 44 obtained in Reference Example 1-4.
The human and rat SLC-1 expressing CHO cells (1×10^8) were scraped in buffer saline phosphate (pH 7.4) to which 5 mM EDTA (ethylenediaminetetraacetic acid) had been added, and centrifuged. 10 ml of homogenized buffer (10 mM NaHCO3, 5 mM EDTA, pH 7.5) was added to the cell pellets, and they were homogenized using a Polytron homogenizer. […]
After this reaction mixture was allowed to react at 25° C. for 1 hour under stirring, it was filtered under vacuum using a glass filter (GF-C), then the filter was washed 3 times with 300 μl of washing solution (50 mM Tris-HCl buffer solution pH 7.5). 50 ml of liquid scintillator was added to the glass filter, and residual radioactivity was determined using a liquid scintillation counter.
The IC50 value of the compound was calculated from the binding inhibition rate (%), based on the definition that the binding inhibition rate (%)=(radioactivity when compound and MCH were added−radioactivity when DMSO solution was added)/(radioactivity when MCH was added−radioactivity when DMSO solution was added)×100.

Compound	IC50 [µM]
CN(C)C/C=C/c1ccc2c(c1)CCCN2C(=O)c1ccc(-c2ccc(Cl)cc2)cc1 [Example 5, (E)-3-[1-[(4′-Chloro[1,1-biphenyl]-4-yl)carbonyl]-1,2,3,4-tetrahydro-6-quinolinyl]-N,N-dimethyl-2-propen-1-amine]	0.02
CN(C)CCCc1ccc2c(c1)CCCN2C(=O)c1ccc(-c2ccccc2)cc1 [Example 1, 3-[1-([1,1′-Biphenyl]-4-ylcarbonyl)-1,2,3,4-tetrahydro-6-quinolinyl]-N,N-dimethyl-1-propanamine]	0.3

System: not given
Assay: not given
Conditions: not given

Compound	melting point
O=C(CCC(=O)N1CCC(c2ccc(Cl)cc2)CC1)c1ccc2c(c1)CCN(C1CCCCC1)CC2 [Example 195, 4-[4-(4-Chlorophenyl)-1-piperidinyl]-1-(3-cyclohexyl-2,3,4,5-tetrahydro-1H-3-benzazepin-7-yl)-4-oxo-1-butanone]	128 to 130 °C
O=C(CCCC(=O)N1CCC(c2ccc(Cl)cc2)CC1)c1ccc2c(c1)CCNCC2 [Example 205, 5-[4-(4-Chlorophenyl)-1-piperidinyl]-5-oxo-1-(2,3,4,5-tetrahydro-1H-3-benzazepin-7-yl)-1-pentanone]	112 to 113 °C
O=C(CCC(=O)N1CCC(c2ccc(Cl)cc2)CC1)c1ccc2c(c1)CCN(CC1CCCO1)CC2 (stereo not shown) [Example 194, 4-[4-(4-Chlorophenyl)-1-piperidinyl]-4-oxo-1-[3-(tetrahydro-2-furanylmethyl)-2,3,4,5-tetrahydro-1H-3-benzazepin-7-yl]-1-butanone]	123 to 125 °C
CN1CCc2ccc(C(=O)CCC(=O)N3CCC(c4ccc(Cl)cc4)CC3)cc2CC1 [Example 16, 4-[4-(4-Chlorophenyl)-1-piperidinyl]-4-oxo-1-(3-methyl-2,3,4,5-tetrahydro-1H-3-benzazepin-7-yl)-1-butanone]	143 to 145 °C
O=C(CCC(=O)N1CCC(c2ccc(Cl)cc2)CC1)c1ccc2c(c1)CCNCC2 [Example 15, 4-[4-(4-Chlorophenyl)-1-piperidinyl]-4-oxo-1-(2,3,4,5-tetrahydro-1H-3-benzazepin-7-yl)-1-butanone]	148 to 149 °C
O=C(CCC(=O)N1CCC(c2ccccc2)CC1)c1ccc2c(c1)CCN(C(=O)C(F)(F)F)CC2 [Example 31, 4-Oxo-4-(phenyl-1-piperidinyl)-1-[3-(trifluoroacetyl)-2,3,4,5-tetrahydro-1H-3-benzazepin-7-yl]-1-butanone]	132 to 133 °C
CCCN(CCC)C(=O)Cc1ccc2c(c1)NC(=O)CO2 [Example 133, N,N-Dipropyl-(3,4-dihydro-2H-1,4-benzoxazine-3-oxo-6-yl) acetamide]	121 to 122 °C
O=C(c1ccc(-c2ccc(Cl)cc2)cc1)N1CCCc2cc(/C=C/CN3CCCCC3)ccc21 [Example 6, 1-[(4′-Chloro[1,1-biphenyl]-4-yl)carbonyl]-6-[(E)-3-piperidino-1-propenyl]-1,2,3,4-tetrahydroquinoline]	141 to 143 °C
CN(C)C/C=C/c1ccc2c(c1)CCN2C(=O)c1ccc(-c2ccccc2)cc1 [Example 7, (E)-3-[1-[([1,1′-Biphenyl]-4-yl)carbonyl]-2,3-dihydro-1H-indol-5-yl]-N,N-dimethyl-2-propen-1-amine]	174 to 176 °C
CN(C)C/C=C/c1ccc2c(c1)CCCN2C(=O)c1ccc(-c2ccc(Cl)cc2)cc1 [Example 5, (E)-3-[1-[(4′-Chloro[1,1-biphenyl]-4-yl)carbonyl]-1,2,3,4-tetrahydro-6-quinolinyl]-N,N-dimethyl-2-propen-1-amine]	162 to 164 °C
O=C(CCCN1CCC(c2ccc(Cl)cc2)CC1)c1ccc2c(c1)CCNCC2 (as salt: HCl) [Example 34, 4-[4-(4-Chlorophenyl)-1-piperidinyl]-1(2,3,4,5-tetrahydro-1H-3-benzazepin-7-yl)-1-butanone]	243 to 247 °C (dec.)
CCCN(CCC)CCc1ccc2c(c1)N(S(=O)(=O)c1ccc(Cl)cc1)CCO2 (as salt: succinate) [Example 137, 4-(4-Chlorobenzenesulfonyl)-3,4-dihydro-6-[2-(N,N-dipropylamino)ethyl]-2H-1,4-benzoxazine succinate]	130 to 133 °C
CCCN(CCC)CCc1ccc2c(c1)N(Cc1cccc3ccccc13)CCO2.Cl	177 to 178 °C
CN(C)CCCc1ccc2c(c1)CCCN2C(=O)c1ccc(-c2ccccc2)cc1 [Example 1, 3-[1-([1,1′-Biphenyl]-4-ylcarbonyl)-1,2,3,4-tetrahydro-6-quinolinyl]-N,N-dimethyl-1-propanamine]	100 to 101 °C
O=C(CCC(=O)N1CCC(c2ccc(Cl)cc2)CC1)c1ccc2c(c1)CCN(C(=O)C(F)(F)F)CC2 [Example 14, 4-[4-(4-Chlorophenyl)-1-piperidinyl]-4-oxo-1-[3-(trifluoroacetyl)-2,3,4,5-tetrahydro-1H-3-benzazepin-7-yl]-1-butanone]	131 to 132 °C
CN(C)CCCc1ccc2c(c1)N(C(=O)c1ccc(-c3ccccc3)cc1)CCCC2 (as salt: hydrochloride) [Example 3, 3-[1-([1,1′-Biphenyl]-4-ylcarbonyl)-2,3,4,5-tetrahydro-1H-1-benzazepin-8-yl]-N,N-dimethyl-1-propanamine hydrochloride]	84 to 86 °C
CN1CCc2ccc(C(=O)CCCN3CCC(c4ccc(Cl)cc4)CC3)cc2CC1 (as salt: HCl) (hydrate or solvate) [Example 35, 4-[4-(4-Chlorophenyl)-1-piperidinyl]-1-(3-methyl-2,3,4,5-tetrahydro-1H-3-benzazepin-7-yl)-1-butanone]	248 to 252 °C (dec.)
COc1ccc(COc2ccc(C(=O)N3CCc4cc(/C=C/CN(C)C)ccc43)cc2)cc1 [Example 9, (E)-3-[1-[4-[(4-Methoxybenzyl)oxy]benzoyl]-2,3-dihydro-1H-indol-5-yl]-N,N-dimethyl-2-propen-1-amine]	164 to 166 °C
CN(C)C/C=C/c1ccc2c(c1)N(C(=O)c1ccc(-c3ccccc3)cc1)CCCC2 (as salt: hydrochloride) [Example 2, (E)-3-[1-([1,1′-Biphenyl]-4-ylcarbonyl)-2,3,4,5-tetrahydro-1H-1-benzazepin-8-yl]-N,N-dimethyl-2-propen-1-amine hydrochloride]	112 to 113 °C
O=C(CCC(=O)N1CCC(c2ccccc2)CC1)c1ccc2c(c1)CCNCC2 [Example 32, 4-Oxo-4-(phenyl-1-piperidinyl)-1-(2,3,4,5-tetrahydro-1H-3-benzazepin-7-yl)-1-butanone]	114 °C
